Reference: PMC5342726, “Identification of small molecule inhibitors of ERCC1-XPF that inhibit DNA repair and potentiate cisplatin efficacy in cancer cells” (Oncotarget, 2016)
Where two headings read alike, the source gives them in different places.

Target: T1, ERCC1-XPF (Homo sapiens, UniProt P07992+Q92889)
T1 construct: made in house; host or cells: Sf9 insect cells, baculovirus (obtained from Aziz Sancar)
T1 sequence (Q92889 1-916): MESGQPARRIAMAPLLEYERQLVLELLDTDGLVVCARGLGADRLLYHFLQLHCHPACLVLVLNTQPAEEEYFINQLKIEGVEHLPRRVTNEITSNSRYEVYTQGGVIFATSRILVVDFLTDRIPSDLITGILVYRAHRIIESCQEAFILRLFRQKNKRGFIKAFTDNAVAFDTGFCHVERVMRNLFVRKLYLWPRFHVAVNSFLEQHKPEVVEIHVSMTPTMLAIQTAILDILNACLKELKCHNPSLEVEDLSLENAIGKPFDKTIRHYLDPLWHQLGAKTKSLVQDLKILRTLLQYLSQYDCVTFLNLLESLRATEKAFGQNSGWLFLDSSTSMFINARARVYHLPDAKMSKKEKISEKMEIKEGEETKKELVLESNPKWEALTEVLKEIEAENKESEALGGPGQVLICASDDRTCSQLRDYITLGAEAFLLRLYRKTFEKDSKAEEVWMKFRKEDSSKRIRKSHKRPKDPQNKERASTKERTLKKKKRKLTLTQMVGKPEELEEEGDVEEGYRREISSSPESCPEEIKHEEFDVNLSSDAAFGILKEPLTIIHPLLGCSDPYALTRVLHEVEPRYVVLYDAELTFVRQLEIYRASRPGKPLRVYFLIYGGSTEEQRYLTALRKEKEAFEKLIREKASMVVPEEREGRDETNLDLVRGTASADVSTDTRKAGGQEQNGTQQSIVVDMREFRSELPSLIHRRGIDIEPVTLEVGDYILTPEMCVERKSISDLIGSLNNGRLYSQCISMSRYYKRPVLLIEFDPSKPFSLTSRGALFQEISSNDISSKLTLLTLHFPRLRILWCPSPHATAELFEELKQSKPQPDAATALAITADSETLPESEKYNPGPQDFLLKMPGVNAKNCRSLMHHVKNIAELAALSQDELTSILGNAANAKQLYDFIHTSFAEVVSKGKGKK
T1 sequence (P07992 1-297): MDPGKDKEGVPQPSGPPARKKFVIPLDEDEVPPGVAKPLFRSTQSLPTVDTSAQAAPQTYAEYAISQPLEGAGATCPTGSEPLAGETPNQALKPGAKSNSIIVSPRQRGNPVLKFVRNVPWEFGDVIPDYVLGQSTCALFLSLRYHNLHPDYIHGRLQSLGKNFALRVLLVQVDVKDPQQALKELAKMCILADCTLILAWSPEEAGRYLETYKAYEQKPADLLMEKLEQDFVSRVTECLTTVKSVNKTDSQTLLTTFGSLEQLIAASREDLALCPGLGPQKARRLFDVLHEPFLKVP
Test: HTS fluorescence assay of ERCC1-XPF endonuclease activity
Format: biochemical
Excerpt: To screen for ERCC1-XPF inhibition, an existing in vitro assay was optimized to a 96-well plate format to allow for screening of compound libraries (NCI-DTP diversity set). These compounds and subsequent vialed compounds were from the Drug Synthesis and Chemistry Branch, Developmental Therapeutics Program, Division of Cancer Treatment and Diagnosis at the National Cancer Institute. We used purified ERCC1-XPF (Supplementary Figure S1) and describe the purification procedure in Supplementary Information. The initial cuvette-based assay was optimized for DNA, MgCl2 concentrations as well as the incubation time to be used in the fluorescence assay in a 96 well plate format (Supplementary Figure S2). The assay consists of a 10 nM DNA (Q+Fl substrate annealed, described below) and 7.5 nM ERCC1-XPF protein in buffer containing 50 mM Tris-HCl pH8.0, 2 mM MgCl2, 0.1 mM BSA, and 0.5 mM β-mercaptoethanol. For preliminary screening, 150 μL of DNA was added to each well and the fluorescence signal was measured at 525 nm following excitation at 485 nm. Compounds or controls were then added to individual wells for a total of 80 compounds on each plate and the fluorescent signal was re-measured. We initially ran the screen using 50 μM compound and then repeated using 10 μM compound. 16 controls were used per plate, which consisted of buffer alone, DNA alone, ERCC1-XPF alone, 10 nM fluorescein ssDNA (positive signal), and 10 nM Q-Fl DNA with 7.5 nM ERCC1-XPF (positive signal). 7.5 nM ERCC1-XPF was added to each well containing the compounds and DNA and incubated for 30 minutes at 37°C after which the fluorescent signal was measured again.
The synthetic DNA substrate mimics a native forked ssDNA-dsDNA substrate of ERCC1-XPF (Figure 1A). This forked DNA substrate has a dsDNA region (14 bases) and a region containing two ssDNA flaps (12 bases each). One 26-mer DNA oligonucleotide contains a site-specific fluorescein modification at the indicated position (Fl Oligo: 5' - GCCAGCGCTCGGAT(AminoC6dT)(FLSN) TTTTTTTTTTT). The semi-complementary strand was synthesized containing a DABCYL quencher (Q) molecule at the depicted position (Q Oligo: 5' - TTTTTTTTTTT (AminoC6dT)(Dabcyl) ATCCGAGCGCTGGC; Figure 1A). The fluorescein (*) molecule has an excitation peak centered at 485 nm and an emission peak centered at 525 nm. The quencher (Q) molecule is able to quench the fluorescence signal of the fluorescein when it is in close proximity. The design of the semi-duplex DNA substrate is such that the fluorescein and DABCYL quencher are directly opposite one another at the double-stranded and single-stranded DNA junction (Figure 1A). […] Upon cleavage by ERCC1-XPF, (~4-5 bases from the dsDNA-ssDNA) the fluorescein label on the cleaved DNA is released into solution and results in a significant increase in fluorescence as the quencher is no longer in close proximity. The DNA substrate is also incorporated with a restriction enzyme site (HhaI) within the duplex DNA that results in a cleavage pattern similar to ERCC1-XPF. This serves as a positive control and allows assessment of ERCC1-XPF cleavage product. This DNA substrate is used in the solution based fluorescence screening assay to screen for inhibitors of ERCC1-XPF endonuclease activity. In the 96 well platform, the Z factor was calculated to be ~0.87 indicating a highly robust assay and highly suitable for a HTS. A Molecular Devices Spectramax M5 plate reader was used for fluorescence detection. The DNA substrate was the same for gel-based assays besides the fluorescent/quencher modifications and 5'-labeling using γ-ATP^32. For the secondary screen, the reaction was setup in a tube with 10 nM DNA, 7.5 nM XPF-ERCC1, 20 U/ml of HhaI, or 7.5 nM XPG (Supplementary Figure S3A) in nuclease reaction buffer with compound titration and incubated at 37°C for 30 minutes. The reaction was stopped by chelating the metal in the buffer and read in the Spectramax M5 plate reader.

[1] = IC50s calculated by CompuSyn, SD from 3 plots, read-out: ERCC1-XPF IC50

| SMILES | IC50 [1] | IC50 (read-out: 50% inhibition of ERCC1-XPF) |
| --- | --- | --- |
| Cc1ccc(S(=O)(=O)Oc2cc(S(=O)(=O)O)cc3cc(S(=O)(=O)O)cc(N)c23)cc1 [NSC16168] | 420 ± 112 nM | – |
| Oc1cc(O)c2c(c1)OC(c1ccc(O)c(O)c1)C(O)C2c1c(O)cc(O)c2c1OC(c1ccc(O)c(O)c1)C(O)C2 (stereo not drawn) [NSC143099] | 22 ± 3 nM | ~22 nM |
